The subject of assay [1] is JAK1 and JAK3 kinases. As to the kind of experiment: Ramos B-cell line stimulated with IL-4, CD23 upregulation (FACS). Type of assay: cell-based, human. Particulars: Ramos B cells, IL-4 50 units/mL, 20-24 hours, CD23 staining; read-out: Example 3 IC50. As for the experimental part:
One means of assaying for JAK inhibition is detection of the effect of compounds I and II on the upregulation of downstream gene products. In the Ramos/IL4 assay, B-cells are stimulated with the cytokine Interleukin-4 (IL-4) leading to the activation of the JAK/Stat pathway through phosphorylation of the JAK family kinases, JAK1 and JAK3, which in turn phosphorylate and activate the transcription factor Stat-6. […] Twenty to 24 hours post stimulation, cells are stained for upregulation of CD23 and analyzed using flow cytometry (FACS). […] An exemplary assay of this type is described in greater detail below. B-cells stimulated with cytokine Interleukin-4 (IL-4) activate the JAK/Stat pathway through phosphorylation of the JAK family kinases, JAK-1 and JAK-3, which in turn phosphorylate and activate the transcription factor Stat-6. […] To study the effect of inhibitors on the JAK family kinases, human Ramos B cells are stimulated with human IL-4. The Ramos B-cell line was acquired from [NT] No. CRL-1596). The cells were cultured in RPMI 1640 (Cellgro, MediaTech, Inc., Herndon, Va., Cat No. 10-040-CM) with 10% fetal bovine serum (FBS), heat inactivated (JRH Biosciences, Inc, Lenexa, Kans., Cat No. 12106-500M) according to ATCC propagation protocol. Cells were maintained at a density of 3.5×10^5. The day before the experiment, Ramos B-cells were diluted to 3.5×10^5 cells/mL to ensure that they were in a logarithmic growth phase. Cells were spun down and suspended in RPMI with 5% serum. 5×10^4 cells were used per point in a 96-well tissue culture plate. Cells were pre-incubated with compound or DMSO (Sigma-Aldrich, St. Louis, Mo., Cat No. D2650) vehicle control for 1 hour in a 37° C. incubator. Cells were then stimulated with IL-4 (Peprotech Inc., Rocky Hill, N.J., Cat No. 200-04) for a final concentration of 50 units/mL for 20-24 hours. Cells were then spun down and stained with anti-CD23-PE(BD Pharmingen, San Diego, Calif., Cat No. 555711) and analyzed by FACS. Detection was performed using a BD LSR I System Flow Cytometer, purchased from Becton Dickinson Biosciences of San Jose, Calif.

The test system of assay [2] is JAK/Stat pathway. Briefly: U937 IFNγ ICAM1 FACS assay. Type of assay: cell-based, human. The settings on record: U937 cells, IFNγ 10 ng/mL, 18-24 hours, ICAM-1 expression; read-out: Example 6 IC50. As for the experimental part: U937 human monocytic cells up-regulate ICAM-1 (CD54) surface expression in response to a variety of different stimuli. Therefore, using ICAM-1 expression as readout, compound effects on different signaling pathways can be assessed in the same cell type. IFNγ up-regulates ICAM-1 through activation of the JAK/Stat pathway. In this example, the up-regulation of ICAM-1 by IFNγ was assessed.
U937 cells were grown in 10% RPMI. The cells were then plated at a concentration of 100,000 cells per 160 μL in 96 well flat bottom plates. […] Then 4 μL of test compound was transferred to 76 μL of 10% RPMI resulting in a 10× solution (100 μM test compound, 5% DMSO). For control wells, 4 μL of DMSO was diluted into 76 μL 10% RPMI.
The assay was performed in duplicate with 8 points (8 3-fold dilution concentrations from […]) and with 4 wells of DMSO only (control wells) under stimulated conditions and 4 wells of DMSO only under unstimulated conditions.
The diluted compound plate was mixed 2× using a multimek (Beckman Coulter of Brea, Calif.) and then 20 μL of the diluted compounds was transferred to the 96 well plate containing 160 μL of cells, which were then mixed again twice at low speeds. The cells and compounds were then pre-incubated for 30 minutes at 37° C. with 5% CO2.
The 10× stimulation mix was made by preparing a 100 ng/mL solution of human IFNγ in 10% RPMI. […] The cells were kept under conditions for stimulation for 18-24 hours at 37° C. with 5% CO2.
The cells were transferred to a 96 well round bottom plate for staining and then kept on ice for the duration of the staining procedure. Cells were spun down at 1000 rpm for 5 minutes at 4° C., following which the supernatant was removed. Following removal of the supernatant, 1 μL APC conjugated mouse anti-human ICAM-1 antibody was added per 100 μL FACS buffer. The cells were then incubated on ice in the dark for 30 minutes. Following incubation, 150 μL of FACS buffer was added and the cells were centrifuged at 1000 rpm for 5 minutes at 4° C., following which the supernatant was removed. […]
Both % live cells and ICAM-1 expression was analyzed. […]

Molecules are shown by their SMILES. Where a name gives a salt, the structure may show the parent alone.

On to `C#CCOc1ccc(Nc2nc(Nc3ccc(C)c(S(=O)(=O)NC(=O)CC)c3)ncc2F)cc1` [VI, 5-Fluoro-N2-[4-methyl-3-(N-propionylaminosulfonyl)phenyl]-N4-[4-(2-propynyloxy)phenyl]-2,4-pyrimidinediamine Arginine Salt], for which the concentration for half-maximal inhibition (IC50) in assay [1] turned out to be 104 nM; in assay [2] it was 424 nM.

Values taken from patent US8497279B2, “Treatment for discoid lupus” (Rigel Pharmaceuticals, Inc., priority 2011, dated 2013).
